Data reported in patent US8017557B2, “Benzodioxole derivatives as modulators of proteolytic activity in plants” (Endura S.p.A., priority 2002, dated 2011).
Like-named read-outs stand apart in the source and are kept apart here.

What was measured:
bromelain = bromelain (Ananas comosus, UniProt P14518); conditions: for initial velocity, Mean / initial velocity, test 1 / initial velocity, test 2 / Mean (% contr.): 1% PBO; for Mean (% contr.): % of control
Description: The assay was carried out as described in Heinrikson & Kezdy, 1976, Methods in Enzymol. 45, p. 740. The conditions are summarised briefly herein: 50 μg of bromelain was mixed with variable quantities of Na CBZ-L-lysine p-nitrophenyl ester substrate in 3 ml of 10 mM acetate buffer pH 4.6 containing KCl (0.1 M) and L-cystein (1 mM).

[1] = tested on: endopeptidase activity in cotton sprouts; conditions: for absorbance reading, Mean, Cotton Sprouts Treated with PBO / absorbance reading, replicate 1, Cotton Sprouts Treated with PBO / absorbance reading, replicate 2, Cotton Sprouts Treated with PBO / absorbance reading, replicate 3, Cotton Sprouts Treated with PBO / Endopeptidase Activity (U × 10^3), Cotton Sprouts Treated with PBO: pH 7.7; for absorbance reading, Mean, Cotton Sprouts Treated with PBO / absorbance reading, replicate 1, Cotton Sprouts Treated with PBO / absorbance reading, replicate 2, Cotton Sprouts Treated with PBO / absorbance reading, replicate 3, Cotton Sprouts Treated with PBO / % difference of endopeptidase activity, treated vs untreated / Endopeptidase Activity (U × 10^3), Cotton Sprouts Treated with PBO: 4 days of germination, PBO 1% w/v; for Δ U (endopeptidase activity, untreated vs PBO treated): same scale as Activity (U × 10^3)
Description: The extent of hydrolytic activity in cotton sprouts was measured at 15′, 30′, 60′, 90′ and 120′ after solubilization of the acetonic powder in aqueous buffer at pH 7.7 by determining the absorbance at 280 nm in a quartz cuvette after protein precipitation with TCA and removal by centrifugation. Each series of analysis was performed in […]. The comparison between the values of […] activity in treated (dark grey) and untreated (light grey) samples was done using the average value of each series of analysis. Abscissa: time (min); ordinate: Abs 280 nm.
The basic idea was to “freeze” the physiologic protein hydrolysis enzymatic activity and to re-establish the process simply solubilizing the proteolytic enzymatic system in suitable buffers, which were 0.1 M phosphate pH 6.5 and 0.1 M tris-HCl pH 7.7, for evaluating both the carboxypeptidase and the endopeptidase activities according to the method described by Hile et al. 1972; Funkhouser et al. 1980.
Cotton seeds (cv. Carmela) were obtained from “Semillas Battle”, Barcelona (E).
The seeds were previously rinsed in tap water and then imbibed with aeration in distilled water over night (Funkhouser, E. A. et al., Z. Pflanzenphysiol., 1980, 100, 319-324).
The plastic boxes containing seeds were covered by a plastic film and placed in a germinator in the dark for 4 days at 30° C. as described in Hile, J. N. and Dure, L. S. J. Biol. Chem., 1972, 247: 5034-5040.
The cotton sprouts of 4 days were collected and frozen in liquid nitrogen and freeze dried (Hile et al. 1972). After this process, the material was crushed in a pestle and freed from fibrous material and settled up to obtain a pretty homogeneous meal of about 0.5 mesh.
The meals were defatted using n-hexane (1:10 w/v) at room temperature and then treated with acetone at −20° C. to remove pigments and polyphenolic compounds, in this case mainly gossypol. The powders obtained were stored in a dry box at room temperature.
The acetonic powder (30 mg) was suspended in buffer (4 ml) and incubated at 37° C. for 15′, 30, 60, 90, 120 minutes. The proteolysis was stopped adding 1 ml of 12% trichloroacetic acid. In this case the buffer used was 0.1 M phosphate pH 7.7 (Funkhouser et al. 1980). The control was a suspension of the same sample prepared in the same way but was immediately deactivated, adding up 1 ml of trichloroacetic acid. The trials with treated and untreated samples were carried out at the same time.
Proteins were precipitated with trichloroacetic acid and then removed by filtration, before with Whatman paper n. 4 and then by micro-filtration (Orange Scientific Braine I'Alleud, Belgium (Ø0.2 μm)). Finally, the hydrolyzed protein samples were analyzed as clear solutions by determining the absorbance at 280 nm in a quartz cuvette.
Each series of analysis was performed threefold. The comparison between the values of endopeptidase activity of treated and untreated samples was done using the average value of each series of analysis.

[2] = PBO 0.334 % (w/w), substrate 240 μM
[3] = PBO 0.5 % (w/w), substrate 240 μM
[4] = PBO 0.667 % (w/w), substrate 240 μM
[5] = PBO 1 % (w/w), substrate 240 μM
[6] = PBO 1.334 % (w/w), substrate 240 μM
[7] = PBO 1.667 % (w/w), substrate 240 μM
[8] = Time 0 (immediately deactivated)

bromelain, sequence (P14518 whole entry): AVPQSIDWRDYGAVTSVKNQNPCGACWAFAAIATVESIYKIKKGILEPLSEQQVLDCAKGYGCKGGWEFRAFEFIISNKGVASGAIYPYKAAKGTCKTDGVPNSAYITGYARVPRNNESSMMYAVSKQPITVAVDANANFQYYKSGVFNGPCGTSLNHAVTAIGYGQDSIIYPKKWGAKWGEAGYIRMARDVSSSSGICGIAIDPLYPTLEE

CCCCOCCOCCOCc1cc2c(cc1CCC)OCO2 [PBO, 5-[[2-(2-Butoxyethoxy)ethoxy]methyl]-6-propyl-1,3-benzodioxole]
initial velocity, Mean (bromelain; substrate 24 μM): 0.0136 absorbance at 340 nm/min
initial velocity, test 1 (bromelain; substrate 24 μM): 0.0141 absorbance at 340 nm/min
initial velocity, test 2 (bromelain; substrate 24 μM): 0.0130 absorbance at 340 nm/min
Mean (% contr.) (bromelain; substrate 24 μM): 68%
initial velocity, Mean (bromelain; substrate 48 μM): 0.0270 absorbance at 340 nm/min
initial velocity, test 1 (bromelain; substrate 48 μM): 0.0243 absorbance at 340 nm/min
initial velocity, test 2 (bromelain; substrate 48 μM): 0.0297 absorbance at 340 nm/min
Mean (% contr.) (bromelain; substrate 48 μM): 68%
initial velocity, Mean (bromelain; substrate 96 μM): 0.0490 absorbance at 340 nm/min
initial velocity, test 1 (bromelain; substrate 96 μM): 0.0518 absorbance at 340 nm/min
initial velocity, test 2 (bromelain; substrate 96 μM): 0.0461 absorbance at 340 nm/min
Mean (% contr.) (bromelain; substrate 96 μM): 78%
Initial velocity (% of control), Exp. 1 (bromelain; [2]): 95%
Initial velocity (% of control), Exp. 2 (bromelain; [2]): 98%
Initial velocity, Exp. 1 (bromelain; [2]): 0.1306 absorbance at 340 nm/min
Initial velocity, Exp. 2 (bromelain; [2]): 0.1197 absorbance at 340 nm/min
Initial velocity, Exp. 3 (bromelain; [2]): 0.1029 absorbance at 340 nm/min
Initial velocity (% of control), Exp. 1 (bromelain; [3]): 91%
Initial velocity, Exp. 1 (bromelain; [3]): 0.1252 absorbance at 340 nm/min
Initial velocity (% of control), Exp. 2 (bromelain; [4]): 88%
Initial velocity, Exp. 2 (bromelain; [4]): 0.1079 absorbance at 340 nm/min
Initial velocity (% of control), Exp. 1 (bromelain; [5]): 86%
Initial velocity (% of control), Exp. 2 (bromelain; [5]): 86%
Initial velocity, Exp. 1 (bromelain; [5]): 0.1194 absorbance at 340 nm/min
Initial velocity, Exp. 2 (bromelain; [5]): 0.1057 absorbance at 340 nm/min
Initial velocity (% of control), Exp. 2 (bromelain; [6]): 84%
Initial velocity, Exp. 2 (bromelain; [6]): 0.1029 absorbance at 340 nm/min
Initial velocity (% of control), Exp. 2 (bromelain; [7]): 76%
Initial velocity, Exp. 2 (bromelain; [7]): 0.0927 absorbance at 340 nm/min
PBO concentration with inhibitory activity on bromelain (bromelain; substrate 240 μM, concentration dependent): higher than 0.5%
endopeptidase activity in PBO treated cotton sprouts ([1]; FIG. 5, treated vs untreated cotton sprouts): lower than in the untreated ones
absorbance reading, Mean, Cotton Sprouts Treated with PBO [1, 8]: 868.00
absorbance reading, replicate 1, Cotton Sprouts Treated with PBO [1, 8]: 821.00
absorbance reading, replicate 2, Cotton Sprouts Treated with PBO [1, 8]: 897.00
absorbance reading, replicate 3, Cotton Sprouts Treated with PBO [1, 8]: 886.00
% difference of endopeptidase activity, treated vs untreated ([1]; Time 15′): 47.86%
Endopeptidase Activity (U × 10^3), Cotton Sprouts Treated with PBO ([1]; Time 15′): 50.67 U × 10^3
absorbance reading, Mean, Cotton Sprouts Treated with PBO ([1]; Time 15′): 918.67
absorbance reading, replicate 1, Cotton Sprouts Treated with PBO ([1]; Time 15′): 965.00
absorbance reading, replicate 2, Cotton Sprouts Treated with PBO ([1]; Time 15′): 876.00
absorbance reading, replicate 3, Cotton Sprouts Treated with PBO ([1]; Time 15′): 915.00
Δ U (endopeptidase activity, untreated vs PBO treated) ([1]; Time 15′): 46.50 U
% difference of endopeptidase activity, treated vs untreated ([1]; Time 30′): 29.00%
Endopeptidase Activity (U × 10^3), Cotton Sprouts Treated with PBO ([1]; Time 30′): 82.00 U × 10^3
absorbance reading, Mean, Cotton Sprouts Treated with PBO ([1]; Time 30′): 950.00
absorbance reading, replicate 1, Cotton Sprouts Treated with PBO ([1]; Time 30′): 965.00
absorbance reading, replicate 2, Cotton Sprouts Treated with PBO ([1]; Time 30′): 935.00
absorbance reading, replicate 3, Cotton Sprouts Treated with PBO ([1]; Time 30′): 950.00
Δ U (endopeptidase activity, untreated vs PBO treated) ([1]; Time 30′): 33.50 U
% difference of endopeptidase activity, treated vs untreated ([1]; Time 60′): 12.86%
Endopeptidase Activity (U × 10^3), Cotton Sprouts Treated with PBO ([1]; Time 60′): 148.00 U × 10^3
absorbance reading, Mean, Cotton Sprouts Treated with PBO ([1]; Time 60′): 1016.00
absorbance reading, replicate 1, Cotton Sprouts Treated with PBO ([1]; Time 60′): 1038.00
absorbance reading, replicate 2, Cotton Sprouts Treated with PBO ([1]; Time 60′): 1038.00
absorbance reading, replicate 3, Cotton Sprouts Treated with PBO ([1]; Time 60′): 972.00
Δ U (endopeptidase activity, untreated vs PBO treated) ([1]; Time 60′): 21.83 U
% difference of endopeptidase activity, treated vs untreated ([1]; Time 90′): 28.80%
Endopeptidase Activity (U × 10^3), Cotton Sprouts Treated with PBO ([1]; Time 90′): 127.33 U × 10^3
absorbance reading, Mean, Cotton Sprouts Treated with PBO ([1]; Time 90′): 995.33
absorbance reading, replicate 1, Cotton Sprouts Treated with PBO ([1]; Time 90′): 1015.00
absorbance reading, replicate 2, Cotton Sprouts Treated with PBO ([1]; Time 90′): 991.00
absorbance reading, replicate 3, Cotton Sprouts Treated with PBO ([1]; Time 90′): 980.00
Δ U (endopeptidase activity, untreated vs PBO treated) ([1]; Time 90′): 51.50 U
% difference of endopeptidase activity, treated vs untreated ([1]; Time 120′): 22.48%
Endopeptidase Activity (U × 10^3), Cotton Sprouts Treated with PBO ([1]; Time 120′): 129.33 U × 10^3
absorbance reading, Mean, Cotton Sprouts Treated with PBO ([1]; Time 120′): 997.33
absorbance reading, replicate 1, Cotton Sprouts Treated with PBO ([1]; Time 120′): 1017.00
absorbance reading, replicate 2, Cotton Sprouts Treated with PBO ([1]; Time 120′): 960.00
absorbance reading, replicate 3, Cotton Sprouts Treated with PBO ([1]; Time 120′): 1015.00
Δ U (endopeptidase activity, untreated vs PBO treated) ([1]; Time 120′): 37.50 U
